Where two headings read alike, the source gives them in different places.
Tests used:
[1] = tested on: Rice (Oryza sativa) 'Cybonee'; settings: for Percent rice injury Cybonet: in vivo
Protocol: (§1) Rice (Oryza sativa) crop varieties (‘Cybonee’, ‘Jupiter’, and ‘Taggart’) and red rice (Oryza sativa) were planted in 6 inch plastic pots containing sterile top soil. Eight to ten seeds of each species were seeded at 12 o'clock, 3 o'clock, 6 o'clock or 9 o'clock around the pot. The pots were watered after planting. […] The test solutions were applied using a compressed air track spray chamber at 30 gallons per acre using a Teejet 8001E nozzle at 40 PSI, three replicates per test rate. After treatment, the pots were watered lightly and transferred to trays in a greenhouse. After the plants were two inches in height the trays were flooded with water and maintained as such for 14 days. The trays were emptied of water and the pots were maintained by regular watering for 4 more days. At 14, 21 and 28 days after treatment (DAT) the plants were evaluated versus untreated control pots containing the same rice and weeds using a scale of 0% (no control) to 100% (complete plant death).

[2] = tested on: Rice (Oryza sativa) 'Jupiter'; settings: for Percent rice injury Jupiter: in vivo
Protocol: as §1

[3] = tested on: Rice (Oryza sativa) 'Taggart'; settings: for Percent rice injury Taggart: in vivo
Protocol: as §1

[4] = tested on: red rice (Oryza sativa); assay: Pre-emergent evaluation on flooded rice, red rice control; assay type: in vivo; settings: 200 g ai/ha; for Percent red rice control: PRE, direct-seeded flooded rice
Protocol: as §1

[5] = tested on: Rice (Oryza sativa) 'Cybonee'; settings: for Percent rice injury Cybonet: Cybonee, Oryza sativa (rice), in vivo
Source text: (§2) Rice (Oryza sativa) was planted in 6″ by 10″ fiber flats filled with sterile top soil. Five rows were made in each flat and the three rice varieties (′Cybonee, ‘Jupiter’, and ‘Taggart’) were planted in the center 3 rows and a row of red rice (Oryza sativa) was planted on either end of the flat. The flats were watered after planting. After application flats were placed in the greenhouse and lightly watered. […] The flats were moved to a greenhouse and watered and fertilized routinely. Studies were conducted using randomized complete block design with four replications. In both studies, visual percent red rice control and rice injury were recorded at 14, 21, and 28 days after treatment (DAT), using a scale of 0 (no control/injury) to 100 (complete plant death).

[6] = tested on: Rice (Oryza sativa) 'Jupiter'; settings: for Percent rice injury Jupiter: Oryza sativa (rice), in vivo
Source text: as §2

[7] = tested on: Rice (Oryza sativa) 'Taggart'; settings: for Percent rice injury Taggart: Oryza sativa (rice), in vivo
Source text: as §2

[8] = tested on: red rice (Oryza sativa); assay: Pre-emergent evaluation on dryland rice, red rice control; assay type: in vivo; settings: 200 g ai/ha; for Percent red rice control: PRE, direct-seeded dryland rice
Source text: as §2

CC1(C)CON(Cc2ccccc2Cl)C1=O [Clomazone, clomazone]
Percent rice injury Cybonet ([1]; Cybonee, Oryza sativa (rice), 21 days after treatment): 58 A %
Percent rice injury Cybonet ([1]; Cybonee, Oryza sativa (rice), 28 days after treatment): 49 AB %
rice injury, 'Cybonee' ([1]; PRE flooded rice, 200 g ai/ha): injured
Percent rice injury Cybonet [1]: 41 A %
Percent rice injury Jupiter ([2]; Jupiter, Oryza sativa (rice), 21 days after treatment): 86 A %
Percent rice injury Jupiter ([2]; Jupiter, Oryza sativa (rice), 28 days after treatment): 79 A %
rice injury, 'Jupiter' ([2]; PRE flooded rice, 200 g ai/ha): injured
Percent rice injury Jupiter [2]: 60 A %
rice injury, 'Taggart' ([3]; PRE flooded rice, 200 g ai/ha): injured
Percent rice injury Taggart ([3]; Taggart, Oryza sativa (rice), 21 days after treatment): 76 A %
Percent rice injury Taggart ([3]; Taggart, Oryza sativa (rice), 28 days after treatment): 71 A %
Percent rice injury Taggart [3]: 58 A %
red rice control ([4]; PRE flooded rice): failed to control
Percent red rice control ([4]; 14 DAT): 56 C %
Percent red rice control ([4]; 21 DAT): 59 B %
Percent red rice control ([4]; 28 DAT): 52 B %
Percent rice injury Cybonet ([5]; 14 days after treatment): 35 A %
Percent rice injury Cybonet ([5]; 21 days after treatment): 39 A %
Percent rice injury Cybonet ([5]; 28 days after treatment): 43 A %
rice injury, 'Cybonee' ([5]; PRE dryland rice, 200 g ai/ha): injured
Percent rice injury Jupiter ([6]; 14 days after treatment): 31 A %
Percent rice injury Jupiter ([6]; 21 days after treatment): 41 A %
Percent rice injury Jupiter ([6]; 28 days after treatment): 44 A %
rice injury, 'Jupiter' ([6]; PRE dryland rice, 200 g ai/ha): injured
rice injury, 'Taggart' ([7]; PRE dryland rice, 200 g ai/ha): injured
Percent rice injury Taggart ([7]; 14 days after treatment): 40 A %
Percent rice injury Taggart ([7]; 21 days after treatment): 60 A %
Percent rice injury Taggart ([7]; 28 days after treatment): 66 A %
red rice control ([8]; PRE dryland rice): failed to control
Percent red rice control ([8]; 14 DAT): 38 C %
Percent red rice control ([8]; 21 DAT): 50 D %
Percent red rice control ([8]; 28 DAT): 46 C %

— patent publication US9635854B2, “Controlling red rice with mesotrione” (FMC Corporation, priority 2014, dated 2017)
